In PubChem BioAssay AID256 (DTP/NCI, 2004):
Values joined by “and” are separate entries in the source; they are usually repeats but may differ in a detail not shown here. Equal entries are not always repeated. Toxic doses and inconclusive results are not listed. Rule for the calls: active = survival T/C of 150% or more; inactive = T/C below 125% in these data.

System: CD2F1 mice, L1210 leukemia ip, survival T/C
Assay: NCI In Vivo Anticancer Drug Screen. Data for tumor model L1210 Leukemia (intraperitoneal) in CD2F1 (CDF1) mice
Details: higher = longer survival
Procedure, shortened: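 Implant tumor; dose compound or vehicle; measure endpoint in both groups; report treated divided by control.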

Measured: T/C

O=C(O)CCCc1ccc(N(CCCl)CCCl)cc1
inactive: endpoint: mean survival time, dose: 0.5 mg/kg/injection, schedule: Q01DX009 (ip), vehicle: Klucel (hydroxypropylcellulose) (HPC) 103 % of control and 108 % of control | endpoint: mean survival time, dose: 1.0 mg/kg/injection, schedule: Q01DX009 (ip), vehicle: Klucel (hydroxypropylcellulose) (HPC) 94 % of control and 100 % of control and 106 % of control | endpoint: mean survival time, dose: 1.0 mg/kg/injection, schedule: Q03HX024 (ip), vehicle: other 102 % of control | endpoint: mean survival time, dose: 1.56 mg/kg/injection, schedule: Q01DX009 (ip), vehicle: saline 101 % of control and 103 % of control | endpoint: mean survival time, dose: 2.0 mg/kg/injection, schedule: Q01DX009 (ip), vehicle: Klucel (hydroxypropylcellulose) (HPC) 97 % of control and 100 % of control and 103 % of control | endpoint: mean survival time, dose: 2.0 mg/kg/injection, schedule: Q01DX009 (ip), vehicle: saline with Tween-80 106 % of control | endpoint: mean survival time, dose: 2.0 mg/kg/injection, schedule: Q01DX009 (oral), vehicle: other 102 % of control | endpoint: mean survival time, dose: 2.0 mg/kg/injection, schedule: Q03HX008 (ip), vehicle: other 101 % of control | endpoint: mean survival time, dose: 2.0 mg/kg/injection, schedule: Q03HX016 (ip), vehicle: other 103 % of control | endpoint: mean survival time, dose: 2.0 mg/kg/injection, schedule: Q03HX024 (ip), vehicle: other 105 % of control | endpoint: mean survival time, dose: 3.13 mg/kg/injection, schedule: Q01DX009 (ip), vehicle: saline 119 % of control and 110 % of control | endpoint: mean survival time, dose: 3.75 mg/kg/injection, schedule: Q01DX009 (ip), vehicle: Klucel (hydroxypropylcellulose) (HPC) 102 % of control | endpoint: mean survival time, dose: 4.0 mg/kg/injection, schedule: Q01DX001 (ip), vehicle: saline with Tween-80 91 % of control | endpoint: mean survival time, dose: 4.0 mg/kg/injection, schedule: Q01DX001 (oral), vehicle: other 95 % of control | endpoint: mean survival time, dose: 4.0 mg/kg/injection, schedule: Q01DX009 (ip), vehicle: Klucel (hydroxypropylcellulose) (HPC) 116 % of control and 101 % of control and 111 % of control | endpoint: mean survival time, dose: 4.0 mg/kg/injection, schedule: Q01DX009 (ip), vehicle: other 114 % of control | endpoint: mean survival time, dose: 4.0 mg/kg/injection, schedule: Q01DX009 (ip), vehicle: saline with Tween-80 117 % of control and 103 % of control | endpoint: mean survival time, dose: 4.0 mg/kg/injection, schedule: Q01DX009 (oral), vehicle: other 96 % of control | endpoint: mean survival time, dose: 4.0 mg/kg/injection, schedule: Q01DX009 (sc), vehicle: other 102 % of control | endpoint: mean survival time, dose: 4.0 mg/kg/injection, schedule: Q03HX008 (ip), vehicle: other 102 % of control | endpoint: mean survival time, dose: 4.0 mg/kg/injection, schedule: Q03HX016 (ip), vehicle: other 110 % of control | endpoint: mean survival time, dose: 4.0 mg/kg/injection, schedule: Q03HX024 (ip), vehicle: other 111 % of control | endpoint: mean survival time, dose: 4.0 mg/kg/injection, schedule: Q04DX003 (ip), vehicle: saline with Tween-80 102 % of control | endpoint: mean survival time, dose: 4.0 mg/kg/injection, schedule: Q04DX003 (oral), vehicle: other 107 % of control | endpoint: mean survival time, dose: 6.25 mg/kg/injection, schedule: Q01DX009 (ip), vehicle: saline 106 % of control and 110 % of control | endpoint: mean survival time, dose: 7.5 mg/kg/injection, schedule: Q01DX007 (ip), vehicle: saline 108 % of control | endpoint: mean survival time, dose: 7.5 mg/kg/injection, schedule: Q01DX009 (ip), vehicle: saline 114 % of control | endpoint: mean survival time, dose: 7.5 mg/kg/injection, schedule: Q03DX003 (ip), vehicle: saline 104 % of control | endpoint: mean survival time, dose: 7.5 mg/kg/injection, schedule: Q04DX003 (ip), vehicle: saline 102 % of control | endpoint: mean survival time, dose: 8.0 mg/kg/injection, schedule: Q01DX001 (ip), vehicle: saline with Tween-80 96 % of control | endpoint: mean survival time, dose: 8.0 mg/kg/injection, schedule: Q01DX001 (oral), vehicle: other 96 % of control | endpoint: mean survival time, dose: 8.0 mg/kg/injection, schedule: Q01DX009 (ip), vehicle: Klucel (hydroxypropylcellulose) (HPC) 113 % of control and 117 % of control and 105 % of control | endpoint: mean survival time, dose: 8.0 mg/kg/injection, schedule: Q01DX009 (ip), vehicle: other 120 % of control | endpoint: mean survival time, dose: 8.0 mg/kg/injection, schedule: Q01DX009 (ip), vehicle: saline with Tween-80 117 % of control and 101 % of control | endpoint: mean survival time, dose: 8.0 mg/kg/injection, schedule: Q01DX009 (oral), vehicle: other 106 % of control | endpoint: mean survival time, dose: 8.0 mg/kg/injection, schedule: Q01DX009 (sc), vehicle: other 111 % of control | endpoint: mean survival time, dose: 8.0 mg/kg/injection, schedule: Q03HX008 (ip), vehicle: other 119 % of control | endpoint: mean survival time, dose: 8.0 mg/kg/injection, schedule: Q03HX016 (ip), vehicle: other 118 % of control | endpoint: mean survival time, dose: 8.0 mg/kg/injection, schedule: Q04DX003 (ip), vehicle: other 118 % of control | endpoint: mean survival time, dose: 8.0 mg/kg/injection, schedule: Q04DX003 (ip), vehicle: saline with Tween-80 109 % of control | endpoint: mean survival time, dose: 8.0 mg/kg/injection, schedule: Q04DX003 (oral), vehicle: other 96 % of control | endpoint: mean survival time, dose: 10.0 mg/kg/injection, schedule: Q01DX009 (ip), vehicle: saline with Tween-80 118 % of control | endpoint: mean survival time, dose: 12.5 mg/kg/injection, schedule: Q01DX009 (ip), vehicle: saline 119 % of control | endpoint: mean survival time, dose: 15.0 mg/kg/injection, schedule: Q01DX007 (ip), vehicle: saline 122 % of control | endpoint: mean survival time, dose: 15.0 mg/kg/injection, schedule: Q01DX009 (ip), vehicle: Klucel (hydroxypropylcellulose) (HPC) 108 % of control | endpoint: mean survival time, dose: 15.0 mg/kg/injection, schedule: Q01DX009 (ip), vehicle: saline with Tween-80 120 % of control | endpoint: mean survival time, dose: 15.0 mg/kg/injection, schedule: Q01DX009 (ip), vehicle: saline 120 % of control | endpoint: mean survival time, dose: 15.0 mg/kg/injection, schedule: Q03DX003 (ip), vehicle: saline 117 % of control | endpoint: mean survival time, dose: 15.0 mg/kg/injection, schedule: Q04DX003 (ip), vehicle: saline 111 % of control | endpoint: mean survival time, dose: 16.0 mg/kg/injection, schedule: Q01DX001 (ip), vehicle: other 102 % of control | endpoint: mean survival time, dose: 16.0 mg/kg/injection, schedule: Q01DX001 (ip), vehicle: saline with Tween-80 107 % of control | endpoint: mean survival time, dose: 16.0 mg/kg/injection, schedule: Q01DX001 (oral), vehicle: other 93 % of control | endpoint: mean survival time, dose: 16.0 mg/kg/injection, schedule: Q01DX001 (sc), vehicle: other 104 % of control | endpoint: mean survival time, dose: 16.0 mg/kg/injection, schedule: Q01DX009 (ip), vehicle: Klucel (hydroxypropylcellulose) (HPC) 114 % of control and 97 % of control | endpoint: mean survival time, dose: 16.0 mg/kg/injection, schedule: Q01DX009 (ip), vehicle: saline with Tween-80 118 % of control and 97 % of control | endpoint: mean survival time, dose: 16.0 mg/kg/injection, schedule: Q01DX009 (oral), vehicle: other 120 % of control | endpoint: mean survival time, dose: 16.0 mg/kg/injection, schedule: Q01DX009 (sc), vehicle: other 120 % of control | endpoint: mean survival time, dose: 16.0 mg/kg/injection, schedule: Q04DX003 (ip), vehicle: other 115 % of control | endpoint: mean survival time, dose: 16.0 mg/kg/injection, schedule: Q04DX003 (ip), vehicle: saline with Tween-80 120 % of control | endpoint: mean survival time, dose: 16.0 mg/kg/injection, schedule: Q04DX003 (oral), vehicle: other 103 % of control | endpoint: mean survival time, dose: 16.0 mg/kg/injection, schedule: Q08DX002 (ip), vehicle: other 101 % of control | endpoint: mean survival time, dose: 30.0 mg/kg/injection, schedule: Q01DX007 (ip), vehicle: saline with Tween-80 90 % of control | endpoint: mean survival time, dose: 30.0 mg/kg/injection, schedule: Q01DX009 (ip), vehicle: Klucel (hydroxypropylcellulose) (HPC) 110 % of control | endpoint: mean survival time, dose: 30.0 mg/kg/injection, schedule: Q01DX009 (ip), vehicle: saline 124 % of control | endpoint: mean survival time, dose: 30.0 mg/kg/injection, schedule: Q04DX003 (ip), vehicle: saline 114 % of control | endpoint: mean survival time, dose: 32.0 mg/kg/injection, schedule: Q01DX001 (ip), vehicle: other 108 % of control | endpoint: mean survival time, dose: 32.0 mg/kg/injection, schedule: Q01DX001 (ip), vehicle: saline with Tween-80 117 % of control and 109 % of control | endpoint: mean survival time, dose: 32.0 mg/kg/injection, schedule: Q01DX001 (oral), vehicle: other 96 % of control | endpoint: mean survival time, dose: 32.0 mg/kg/injection, schedule: Q01DX001 (sc), vehicle: other 108 % of control | endpoint: mean survival time, dose: 32.0 mg/kg/injection, schedule: Q01DX009 (oral), vehicle: other 102 % of control | endpoint: mean survival time, dose: 32.0 mg/kg/injection, schedule: Q04DX003 (ip), vehicle: other 120 % of control | endpoint: mean survival time, dose: 32.0 mg/kg/injection, schedule: Q04DX003 (oral), vehicle: other 103 % of control | endpoint: mean survival time, dose: 32.0 mg/kg/injection, schedule: Q08DX002 (ip), vehicle: other 108 % of control | endpoint: mean survival time, dose: 64.0 mg/kg/injection, schedule: Q01DX001 (ip), vehicle: other 118 % of control | endpoint: mean survival time, dose: 64.0 mg/kg/injection, schedule: Q01DX001 (oral), vehicle: other 102 % of control | endpoint: mean survival time, dose: 64.0 mg/kg/injection, schedule: Q01DX001 (sc), vehicle: other 114 % of control | endpoint: mean survival time, dose: 64.0 mg/kg/injection, schedule: Q04DX003 (oral), vehicle: other 93 % of control | endpoint: mean survival time, dose: 64.0 mg/kg/injection, schedule: Q08DX002 (ip), vehicle: other 112 % of control | endpoint: median survival time, dose: 3.13 mg/kg/injection, schedule: Q01DX009 (ip), vehicle: saline 114 % of control and 105 % of control | endpoint: median survival time, dose: 6.25 mg/kg/injection, schedule: Q01DX009 (ip), vehicle: saline 114 % of control and 105 % of control | endpoint: median survival time, dose: 12.5 mg/kg/injection, schedule: Q01DX009 (ip), vehicle: saline 117 % of control
